Assay results as given in patent publication US8802597B2, “Herbicidal pyrimidines” (E I du Pont de Nemours and Company, priority 2003, dated 2014).

How the values were obtained:
Type in all cases: in vivo
[1] = system: redroot pigweed (Amaranthus retroflexus); experiment: Test A pre/postemergence
How it was run: (§1)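 Pre/post greenhouse screen; loam/sand soil; solvent + surfactant formulation; pre = directed soil spray at planting, post = 1–2 leaf plants, 2–10 cm; ~10 d; visual 0–100 rating vs untreated.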

[2] = system: morningglory (Ipomoea spp.); experiment: Test A pre/postemergence
How it was run: as §1

[3] = system: barnyardgrass (Echinochloa crus-galli); experiment: Test A pre/postemergence
How it was run: as §1

[4] = system: crabgrass (Digitaria sanguinalis); experiment: Test A pre/postemergence
How it was run: as §1

[5] = system: velvetleaf (Abutilon theophrasti); experiment: Test A pre/postemergence
How it was run: as §1

[6] = system: giant foxtail (Setaria faberi); experiment: Test A pre/postemergence
How it was run: as §1

[7] = system: purple redstem (Ammannia coccinea); experiment: Test E flooded paddy water application; conditions: Flood, 21 days, scale 0 to 100 (0 no effect, 100 complete control)
Excerpt: (§2) Three plastic pots (ca. 16-cm diameter) per rate were partially filled with sterilized Tama silt loam soil comprising a 35:50:15 ratio of sand, silt and clay and 2.6% organic matter. Separate plantings for each of the three pots were as follows. Seeds from the U.S. of ducksalad (Heteranthera limosa), smallflower umbrella sedge (Cyperus difformis) and purple redstem (Ammannia coccinea), were planted into one 16-cm pot for each rate. Seeds from the U.S. of rice flatsedge (Cyperus iria), bearded (brdd.) sprangletop (Leptochloa fusca ssp. fascicularis), one stand of 9 or 10 water seeded rice seedlings (Oryza sativa cv. ‘Japonica-M202’), and one stand of 6 transplanted rice seedlings (Oryza sativa cv. ‘Japonica-M202’) were planted into one 16-cm pot for each rate. Seeds from the U.S. of barnyardgrass (Echinochloa crus-galli), late watergrass (Echinochloa oryzicola), early watergrass (Echinochloa oryzoides) and junglerice (Echinochloa colona) were planted into one 16-cm pot for each rate. Plantings were sequential so that crop and weed species were at the 2.0 to 2.5-leaf stage at time of treatment.
(§3) Potted plants were grown in a greenhouse with day/night temperature settings of 29.5/26.7° C., and supplemental balanced lighting was provided to maintain a 16-hour photoperiod. Test pots were maintained in the greenhouse until test completion.
(§4) At time of treatment, test pots were flooded to 3 cm above the soil surface, treated by application of test compounds directly to the paddy water, and then maintained at that water depth for the duration of the test. Effects of treatments on rice and weeds were visually evaluated by comparison to untreated controls after 21 days. Plant response ratings, summarized in Table E, are based on a scale of 0 to 100 where 0 is no effect and 100 is complete control. A dash (-) response means no test result.

[8] = system: transplanted rice seedlings (Oryza sativa cv. ‘Japonica-M202’); experiment: Test E flooded paddy water application; conditions: Flood, 21 days, scale 0 to 100 (0 no effect, 100 complete control)
Excerpt: as §2, §3, §4

[9] = system: rice flatsedge (Cyperus iria); experiment: Test E flooded paddy water application; conditions: Flood, 21 days, scale 0 to 100 (0 no effect, 100 complete control)
Excerpt: as §2, §3, §4

[10] = system: water seeded rice seedlings (Oryza sativa cv. ‘Japonica-M202’); experiment: Test E flooded paddy water application; conditions: Flood, 21 days, scale 0 to 100 (0 no effect, 100 complete control)
Excerpt: as §2, §3, §4

[11] = system: bearded (brdd.) sprangletop (Leptochloa fusca ssp. fascicularis); experiment: Test E flooded paddy water application; conditions: Flood, 21 days, scale 0 to 100 (0 no effect, 100 complete control)
Excerpt: as §2, §3, §4

[12] = system: late watergrass (Echinochloa oryzicola); experiment: Test E flooded paddy water application; conditions: Flood, 21 days, scale 0 to 100 (0 no effect, 100 complete control)
Excerpt: as §2, §3, §4

[13] = system: barnyardgrass (Echinochloa crus-galli); experiment: Test E flooded paddy water application; conditions: Flood, 21 days, scale 0 to 100 (0 no effect, 100 complete control)
Excerpt: as §2, §3, §4

[14] = system: ducksalad (Heteranthera limosa); experiment: Test E flooded paddy water application; conditions: Flood, 21 days, scale 0 to 100 (0 no effect, 100 complete control)
Excerpt: as §2, §3, §4

[15] = system: junglerice (Echinochloa colona); experiment: Test E flooded paddy water application; conditions: Flood, 21 days, scale 0 to 100 (0 no effect, 100 complete control)
Excerpt: as §2, §3, §4

[16] = system: early watergrass (Echinochloa oryzoides); experiment: Test E flooded paddy water application; conditions: Flood, 21 days, scale 0 to 100 (0 no effect, 100 complete control)
Excerpt: as §2, §3, §4

[17] = Postemergence, 125 g ai/ha, 0 to 100 scale (0 no effect, 100 complete control)
[18] = Postemergence, 500 g ai/ha, 0 to 100 scale (0 no effect, 100 complete control)
[19] = Preemergence, 125 g ai/ha, 0 to 100 scale where 0 is no effect and 100 is complete control, approximately ten days
[20] = Preemergence, 500 g ai/ha, 0 to 100 scale where 0 is no effect and 100 is complete control, approximately ten days

CCOC(=O)c1nc(-c2ccc(CC)cc2)nc(N)c1Cl [Compound 99]
0: Plant response rating, Pigweed [1, 19] | Plant response rating, Pigweed [1, 20] | Plant response rating, Morningglory [2, 17] | Plant response rating, Morningglory [2, 18] | Plant response rating, Morningglory [2, 19] | Plant response rating, Morningglory [2, 20] | Plant response rating, Barnyardgrass [3, 17] | Plant response rating, Barnyardgrass [3, 18] | Plant response rating, Barnyardgrass [3, 19] | Plant response rating, Barnyardgrass [3, 20] | Plant response rating, Crabgrass [4, 17] | Plant response rating, Crabgrass [4, 18] | Plant response rating, Crabgrass [4, 19] | Plant response rating, Crabgrass [4, 20] | Plant response rating, Velvetleaf [5, 17] | Plant response rating, Velvetleaf [5, 19] | Plant response rating, Velvetleaf [5, 20] | Plant response rating, Foxtail, Giant [6, 17] | Plant response rating, Foxtail, Giant [6, 18] | Plant response rating, Foxtail, Giant [6, 19] | Plant response rating, Foxtail, Giant [6, 20] | Redstem plant response rating ([7]; 32 g ai/ha) | Redstem plant response rating ([7]; 125 g ai/ha) | Plant response rating, Redstem ([7]; 16 g ai/ha) | Rice, Transplanted plant response rating ([8]; 32 g ai/ha) | Rice, Transplanted plant response rating ([8]; 64 g ai/ha) | Rice, Transplanted plant response rating ([8]; 125 g ai/ha) | Plant response rating, Rice, Transplanted ([8]; 16 g ai/ha) | Rice, Water Seeded plant response rating ([10]; 32 g ai/ha) | Rice, Water Seeded plant response rating ([10]; 64 g ai/ha) | Plant response rating, Rice, Water Seeded ([10]; 16 g ai/ha) | Sprangletop, Brdd. plant response rating ([11]; 32 g ai/ha) | Sprangletop, Brdd. plant response rating ([11]; 64 g ai/ha) | Sprangletop, Brdd. plant response rating ([11]; 125 g ai/ha) | Sprangletop, Brdd. plant response rating ([11]; 250 g ai/ha) | Plant response rating, Sprangletop, Brdd. ([11]; 16 g ai/ha) | Watergrass, Late plant response rating ([12]; 32 g ai/ha) | Watergrass, Late plant response rating ([12]; 64 g ai/ha) | Watergrass, Late plant response rating ([12]; 125 g ai/ha) | Watergrass, Late plant response rating ([12]; 250 g ai/ha) | Plant response rating, Watergrass, Late ([12]; 16 g ai/ha) | Barnyardgrass plant response rating ([13]; 32 g ai/ha) | Barnyardgrass plant response rating ([13]; 64 g ai/ha) | Barnyardgrass plant response rating ([13]; 125 g ai/ha) | Barnyardgrass plant response rating ([13]; 250 g ai/ha) | Plant response rating, Barnyardgrass ([13]; 16 g ai/ha) | Junglerice plant response rating ([15]; 32 g ai/ha) | Junglerice plant response rating ([15]; 64 g ai/ha) | Junglerice plant response rating ([15]; 125 g ai/ha) | Junglerice plant response rating ([15]; 250 g ai/ha) | Plant response rating, Junglerice ([15]; 16 g ai/ha) | Watergrass, Early plant response rating ([16]; 32 g ai/ha) | Watergrass, Early plant response rating ([16]; 64 g ai/ha) | Watergrass, Early plant response rating ([16]; 125 g ai/ha) | Watergrass, Early plant response rating ([16]; 250 g ai/ha) | Plant response rating, Watergrass, Early ([16]; 16 g ai/ha)
100: Flatsedge, Rice plant response rating ([9]; 64 g ai/ha) | Flatsedge, Rice plant response rating ([9]; 125 g ai/ha) | Flatsedge, Rice plant response rating ([9]; 250 g ai/ha) | Plant response rating, Flatsedge, Rice ([9]; 16 g ai/ha) | Ducksalad plant response rating ([14]; 32 g ai/ha) | Ducksalad plant response rating ([14]; 64 g ai/ha) | Ducksalad plant response rating ([14]; 125 g ai/ha) | Ducksalad plant response rating ([14]; 250 g ai/ha)
45: Redstem plant response rating ([7]; 250 g ai/ha)
10: Plant response rating, Pigweed [1, 18]
5: Plant response rating, Pigweed [1, 17]
35: Plant response rating, Velvetleaf [5, 18]
20: Rice, Transplanted plant response rating ([8]; 250 g ai/ha) | Rice, Water Seeded plant response rating ([10]; 125 g ai/ha) | Rice, Water Seeded plant response rating ([10]; 250 g ai/ha)
95: Plant response rating, Ducksalad ([14]; 16 g ai/ha)
